According to patent publication US4122181A, “Analgesic (3-micotinamido-N(quinolyl) anthranilates and method of use” (Pierre Fabre S.A., priority 1975, dated 1978):
In brackets after ≈: the same amount, converted by molar mass. Read-outs that look alike come from different tables or passages of the source.

Legend:
[1] = Solubility characteristics
[2] = test system: rats; format: in vivo, rat
Method: The ulceration index was determined in rats subjected to constraint for 7 hours.
The vehicle is a 4% aqueous solution of Tween 80 (TM - surface active agent).
The ulcerogenic index is calculated in accordance with the criteria established by […] et al. (Arch. Int. Pharmacodyn; 1971, 190, 6-13).

[3] = Acute toxicity (LD50, method of MILLER and TAINTER) in the conventional mouse; details: in vivo, mouse about 20 g
Method: The toxicology study was carried out on the conventional mouse weighing about 20 g.
The substances were administered orally and intraperitoneally. The LD50 is calculated by the method of MILLER and TAINTER (Proc. Soc. Exper. Biol. Med. 1944, 57, 261).

[4] = test system: rabbit tooth; experiment: Analgesic activity: electrical stimulation of rabbit tooth (CHEYMOL); format: in vivo; details: for time of maximum activity after administration: 100 mg/kg, administered orally; for analgesic activity compared with the control product (glaphenine): electrical stimulation of rabbit tooth
Description: (b) Electrical stimulation of rabbit tooth in accordance with CHEYMOL - Therapie 1959, XIV, p. 350 to 360.

[5] = test system: phenyl benzoquinone; experiment: Analgesic activity by the technique of SIEGMUND et al. (phenyl benzoquinone); format: in vivo; details: read-out: ED50, analgesic activity
Method: The compounds are administered orally 30 minutes before the injection of the phenyl benzoquinone solution.

[6] = test system: mice; experiment: Falling of mice placed on a turning horizontal bar (central properties); format: in vivo, mouse; details: bar of 4 cm diameter turning at 8 rpm
[7] = test system: mice; experiment: Potentialization of anesthesia induced by chloral hydrate in mice; format: in vivo, mouse; details: 350 mg/kg chloral hydrate i.p., compound 100 mg/kg orally 30 minutes in advance
[8] = rats, oral, dose 100 (unit not given), N = 10, constraint for 7 hours
[9] = ip, intraperitoneal, read-out: LD50, intraperitoneally
[10] = oral, 30 minutes before injection of phenyl benzoquinone solution

| Structure (SMILES) | Ulceration index [2, 8] | LD50 [3, 9] [mg/kg] | LD50 ([3]; oral, read-out: LD50, orally) [mg/kg] | time of maximum activity after administration [4] | analgesic activity compared with the control product (glaphenine) [4] | ED50 [5, 10] [mg/kg] | also measured |
| --- | --- | --- | --- | --- | --- | --- | --- |
| O=C(NCCOC(=O)c1ccccc1Nc1ccnc2cc(C(F)(F)F)ccc12)c1cccnc1 [F 1636, β-nicotinamido-ethyl-N(7-trifluoromethyl-4-quinolyl)-anthranilate] | 4.2 | > 1000 | 3200 ± 500 | about 60 minutes | better activity than the control product (glaphenine) | 15 | solubility in dimethyl formamide ([1]; dimethyl formamide): 8% |
| Nc1ccccc1C(=O)OCCNC(=O)c1cccnc1 [β-nicotinamido-ethyl anthranilate] | – | – | – | – | – | – | solubility in alcohol ([1]; alcohol): 2.5%; solubility in dimethyl acetamide ([1]; dimethyl acetamide): 100%; solubility in water ([1]; water): insoluble |
| O=C(OCC(O)CO)c1ccccc1Nc1ccnc2cc(Cl)ccc12 (stereo not shown) [Glaphenine, reference compound] | 8.8 | ~500 | 1500 ± 500 | – | – | 36 | – |
| CC(=O)Oc1ccccc1C(=O)O [Aspirin, reference compound] | – | – | – | – | – | – | Ulceration index ([2]; rat, in vivo, po): 13.1; ED50 ([5]; po): 100 mg/kg |
| O=C(NCCOC(=O)c1ccccc1Nc1ccnc2cc(Cl)ccc12)c1cccnc1 [F 1531, β-nicotinamido-ethyl-N(7-chloro 4-quinolyl)-anthranilate] | 5.3 | > 500 | 2800 ± 500 | about 60 minutes | better activity than the control product (glaphenine) | 28 | solubility ([1]; 1 n hcl): 200 mg/mL (≈ 448 mM); doses resulting in the falling of mice from turning horizontal bar [6]: identical with the lethal doses; effect on anesthesia induced by chloral hydrate [7]: neither potentialization nor decrease in the anesthesia |
